Data on 29 compounds can be found in patent US4730005A, “Leukotriene antagonist” (SmithKline Beckman Corporation, priority 1986, dated 1988).

The target of test [1] is T1, leukotriene D4 (LTD4) induced contraction of guinea pig tracheal tissues (Cavia porcellus, UniProt Q2NNR5).
T1 construct: Guinea pig (adult male albino Hartley strain) tracheal spiral strips; from tissue; host or cells: guinea pig trachea (spiral strips, adult male albino Hartley strain)
T1 sequence (Q2NNR5 1-340): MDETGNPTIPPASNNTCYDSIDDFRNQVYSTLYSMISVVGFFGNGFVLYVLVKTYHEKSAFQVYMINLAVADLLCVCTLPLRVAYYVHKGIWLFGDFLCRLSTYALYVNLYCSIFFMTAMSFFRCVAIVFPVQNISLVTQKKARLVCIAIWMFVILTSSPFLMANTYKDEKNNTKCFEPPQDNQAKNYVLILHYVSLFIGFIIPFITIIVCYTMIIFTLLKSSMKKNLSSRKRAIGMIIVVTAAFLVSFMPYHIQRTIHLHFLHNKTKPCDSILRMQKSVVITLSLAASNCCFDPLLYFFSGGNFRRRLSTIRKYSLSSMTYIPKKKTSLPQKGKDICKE
Put plainly: in vitro inhibition of LTD4 induced contraction of guinea pig tracheal spiral strips. The class given is cell-based, guinea pig (adult male albino Hartley strain). The conditions noted are these: guinea pig trachea, LTD4 agonist, 30 min pretreatment with test compound. The procedure: The leukotriene antagonist activity of the compounds of this invention is measured by the ability of the compounds to inhibit the leukotriene induced contraction of guinea pig tracheal tissues in vitro and to inhibit leukotriene induced bronchoconstriction in guinea pigs in vivo. The following methodologies were employed: In vitro: Guinea pig (adult male albino Hartley strain) tracheal spiral strips of approximate dimensions 2 to 3 mm cross-sectional width and 3.5 cm length were bathed in modified Krebs buffer in jacketed 10 ml tissue bath and continously aerated with 95% 02 /5% CO2. The tissues were connected via silk suture to force displacement transducers for recording isometric tension. The tissues were equilibrated for 1 hr., pretreated for 15 minutes with meclofenamic acid (1 μM) to remove intrinsic prostaglandin responses, and then pretreated for an additional 30 minutes with either the test compound or vehicle control. A cumulative concentration-response curve for LTD4 on triplicate tissues was generated by successive increases in the bath concentration of the LTD4. In order to minimize intertissue variability, the contractions elicited by LTD4 were standardized as a percentage of the maximum response obtained to a reference agonist, carbachol (10 μM). Calculations: The averages of the triplicate LTD4 concentration-response curves both in the presence and absence of the test compound were plotted on log graph paper. The concentration of LTD4 needed to elicit 30% of the contraction elicited by carbachol was measured and defined as the EC30. The -log KB value for the test compound was determined by the following equations: [formula] In vivo: Anesthetized, spontaneously breathing guinea pigs (Adult male albino Hartley strain) were monitored on a Buxco pulmonary mechanics computer. Changes in airway resistance (RL) were calculated by the computer on a breath-by-breath basis at isovolumic points from signals measuring airflow and transpulmonary pressure using differential pressure transducers. Animals received either test compound or vehicle control intravenously via the jugular vein. LTD4 was then injected into the jugular vein. The bronchoconstriction produced was reflected by % changes in airways resistance relative to the baseline values obtained prior to injection of the test compound or vehicle control. Each guinea pig received either vehicle control or test compound.

Test [2] has as its system LTD4 induced bronchoconstriction in guinea pigs. Put plainly: in vivo inhibition of LTD4 induced bronchoconstriction (airway resistance RL) in guinea pigs. Conditions: 5 mg/kg, intravenous. More on the design: species or system guinea pig (adult male albino Hartley strain). On the procedure:
The leukotriene antagonist activity of the compounds of this invention is measured by the ability of the compounds to inhibit the leukotriene induced contraction of guinea pig tracheal tissues in vitro and to inhibit leukotriene induced bronchoconstriction in guinea pigs in vivo. The following methodologies were employed: In vitro: Guinea pig (adult male albino Hartley strain) tracheal spiral strips of approximate dimensions 2 to 3 mm cross-sectional width and 3.5 cm length were bathed in modified Krebs buffer in jacketed 10 ml tissue bath and continously aerated with 95% 02 /5% CO2. The tissues were connected via silk suture to force displacement transducers for recording isometric tension. The tissues were equilibrated for 1 hr., pretreated for 15 minutes with meclofenamic acid (1 μM) to remove intrinsic prostaglandin responses, and then pretreated for an additional 30 minutes with either the test compound or vehicle control. A cumulative concentration-response curve for LTD4 on triplicate tissues was generated by successive increases in the bath concentration of the LTD4. In order to minimize intertissue variability, the contractions elicited by LTD4 were standardized as a percentage of the maximum response obtained to a reference agonist, carbachol (10 μM).
Calculations: The averages of the triplicate LTD4 concentration-response curves both in the presence and absence of the test compound were plotted on log graph paper. The concentration of LTD4 needed to elicit 30% of the contraction elicited by carbachol was measured and defined as the EC30. The -log KB value for the test compound was determined by the following equations: [formula] In vivo: Anesthetized, spontaneously breathing guinea pigs (Adult male albino Hartley strain) were monitored on a Buxco pulmonary mechanics computer. Changes in airway resistance (RL) were calculated by the computer on a breath-by-breath basis at isovolumic points from signals measuring airflow and transpulmonary pressure using differential pressure transducers. Animals received either test compound or vehicle control intravenously via the jugular vein. LTD4 was then injected into the jugular vein. The bronchoconstriction produced was reflected by % changes in airways resistance relative to the baseline values obtained prior to injection of the test compound or vehicle control. Each guinea pig received either vehicle control or test compound.
Calculations: The average of 3-6 animals per treatment was calculated using the % changes in the pulmonary parameters for control and test compound-treated animals. The average % inhibition by the test compound was calculated from the following equation: [formula]

As for `CCCCCCCCCCCCc1ccccc1C(SCC(=O)O)SCC(=O)O` [1 1 C12 H25 H, 3,5-dithia-4-(2-dodecylphenyl)heptanedioic acid], the Kb in test [1] is 1260 nM.
In the case of `O=C(O)CCSC(SCCC(=O)O)c1ccccc1CCCCCC/C=C\c1ccccc1` [2 2 (CH2)6CHCHphenyl H, 4,6-Dithia-5-[2-(8-phenyl-7(Z)-octenyl)phenyl]nonanedioic acid], in test [1], the Kb was 631 nM.
As for `O=C(O)CCSC(SCCC(=O)O)c1ccccc1CCCCCCCSc1ccccc1` [2 2 C7 H4 S phenyl H, 4,6-Dithia-5-[2-(7-phenylthioheptyl)phenyl]nonanedioic acid], the Kb in test [1] was 398 nM.
Take `O=C(O)CCSC(SCCC(=O)O)c1ccccc1CCCCCCCCC1CCCCC1` [2 2 C8 H16 cyclohexyl H, 4,6-Dithia-5-[2-(8-cyclohexyloctyl)phenyl]nonanedioic acid]: in test [1], the Kb is 3160 nM.
The same measure, in the same setting: the same measure for `O=C(O)CCSC(SCCC(=O)O)c1cc(C(F)(F)F)ccc1CCCCCCCCc1ccccc1` [2 2 C8 H16 phenyl CF3, 4,6-Dithia-5-[2-(8-phenyloctyl)-5-trifluoromethylphenyl]nonanedioic acid]: 251 nM; for `O=C(O)CCSC(SCCC(=O)O)c1ccccc1CCCCCCCCc1ccc(C(F)(F)F)cc1` [2 2 C8 H16(4-CF3 phenyl) H, 4,6-Dithia-5-[2-(8-(4-trifluoromethylphenyl)octyl)phenyl]nonanedioic acid]: 631 nM; for `CCCCCCCCc1ccccc1C(SCCC(=O)O)SCCC(=O)O` [2 2 C8 H17 H, 4,6-dithia-5-(2-octylphenyl)nonanedioic acid]: 6310 nM.
Turning to `C#CCCCCCCCCCCc1ccccc1C(SCCC(=O)O)SCCC(=O)O` [2 2 C10 H20 CCH H, 4,6-Dithia-5-[2-(11-dodecynyl)phenyl]nonanedioic acid], in test [1], the Kb was 398 nM.
For the compound `CCCCCCCCCCc1ccccc1C(SCCC(=O)O)SCCC(=O)O` [2 2 C10 H21 H, 4,6-dithia-5-(2-decylphenyl)nonanedioic acid], the Kb in test [1] was 316 nM. Also, in test [2], the “% Inhibition of RL” value was found to be 60.7%.
For `O=C(O)CCSC(SCCC(=O)O)c1ccccc1CCCCCCCCCCCC(F)(F)F` [2 2 C11 H22 CF3 H, 4,6-Dithia-5-[2-(12,12,12-trifluorododecyl)phenyl]nonanedioic acid], in test [1], the Kb was 631 nM. Also, the “% Inhibition of RL” value in test [2] is 30.4%.
As for `CCCCCCCCCCC#Cc1ccccc1C(SCCC(=O)O)SCCC(=O)O` [2 2 CCC10 H21 H, 4,6-Dithia-5-[2-(1-dodecyn-1-yl)phenyl]nonanedioic acid], the Kb in test [1] was 794 nM.
For the compound `CCCCCCCCCC/C=C/c1ccccc1C(SCCC(=O)O)SCCC(=O)O` [2 2 CHCHC10 H21 trans H, 4,6-Dithia-5-[2-(1-trans-dodecenyl)phenyl]nonanedioic acid], in test [1], the Kb is 1580 nM.
On the same count and under the same terms, under `O=C(O)CCSC(SCCC(=O)O)c1cccc(CCCCCCCCc2ccccc2)c1` [2 2 H C8 H16 phenyl, 4,6-dithia-5-[3-(8-phenyloctyl)phenyl]nonanedioic acid] stands 1000 nM.
For `CCCCCCCCCOc1cccc(C(SCCC(=O)O)SCCC(=O)O)c1` [2 2 H OC9 H19, 4,6-dithia-5-(3-nonyloxyphenyl)nonanedioic acid], the Kb in test [1] is 1260 nM.
In the case of `CCCCCCCCCCCOc1cccc(C(SCCC(=O)O)SCCC(=O)O)c1` [2 2 H OC11 H23, 4,6-dithia-5-(3-undecyloxyphenyl)nonanedioic acid], the Kb in test [1] was 794 nM.
Same read-out and setting: the same measure for `CCCCC/C=C\C/C=C\COc1cccc(C(SCCC(=O)O)SCCC(=O)O)c1` [2 2 H OCH2 CHCHCH2 CHCHC5 H11, 4,6-dithia-5-[3-(2(Z),5(Z)-undecadienyloxy)phenyl]nonanedioic acid]: 794 nM; for `CCCCCCCCCOc1ccccc1C(SCCC(=O)O)SCCC(=O)O` [2 2 OC9 H19 H, 4,6-dithia-5-(2-nonyloxyphenyl)nonanedioic acid]: 1580 nM.
With `CCCCCCCCCCCOc1ccc(Br)cc1C(SCCC(=O)O)SCCC(=O)O` [2 2 OC11 H23 Br, 4,6-dithia-5-(5-bromo-2-undecyloxyphenyl)nonanedioic acid], in test [1], the Kb was 1000 nM.
In the case of `CCCCCCCCCCCOc1ccc(OC)cc1C(SCCC(=O)O)SCCC(=O)O` [2 2 OC11 H23 CH3 O, 4,6-dithia-5-(5-methoxy-2-undecyloxyphenyl)nonanedioic acid], the Kb in test [1] is 1260 nM.
`CCCCCCCCCCCOc1ccc([N+](=O)[O-])cc1C(SCCC(=O)O)SCCC(=O)O` [2 2 OC11 H23 NO2, 4,6-dithia-5-(5-nitro-2-undecyloxyphenyl)nonanedioic acid]: in test [1], the Kb was 794 nM.
As to `CCCCCCCCCCCOc1ccc(O)cc1C(SCCC(=O)O)SCCC(=O)O` [2 2 OC11 H23 OH, 4,6-dithia-5-(5-hydroxy-2-undecyloxyphenyl)nonanedioic acid], the Kb in test [1] was 1000 nM.
As for `CCCCC/C=C\C/C=C\COc1ccccc1C(SCCC(=O)O)SCCC(=O)O` [2 2 OCH2CHCHCH2CHCHC5 H11 H, 4,6-dithia-5-[2-(2(Z),5(Z)-undecadienyloxy)phenyl]nonanedioic acid], the Kb in test [1] was 1000 nM.
With `CCCCCCCCCCCSc1ccccc1C(SCCC(=O)O)SCCC(=O)O` [2 2 SC11 H23 H, 4,6-Dithia-5-(2-undecylthiophenyl)nonanedioic acid], the Kb in test [1] is 1000 nM.
For `CCCCc1ccc(CCCCc2ccccc2C(SCCC(=O)O)SCCC(=O)O)cc1` [2 2 [drawing 19] H, 4,6-Dithia-5-[2-(4-(4-butylphenyl)butyl)phenyl]nonanedioic acid], the Kb in test [1] is 2510 nM.
`CCCc1c(OCCCCCOc2ccccc2C(SCCC(=O)O)SCCC(=O)O)ccc(C(C)=O)c1O` [4,6-Dithia-5-[2-(5-(4-acetyl-3-hydroxy-2-propylphenoxy)-pentoxy)phenyl]nonanedioic acid]: the Kb in test [1] was 251 nM.
The same measure, in the same setting: the same measure for `CCCCCCCCCCCOc1ccccc1C(C)(SCCC(=O)O)SCCC(=O)O` [4,6-dithia-5-methyl-5-(2-undecyloxyphenyl)nonanedioic acid]: 5010 nM.
As to `CCCCCCCCCCCCc1ccccc1C(SCCC(=O)O)[S+]([O-])CCC(=O)O` (stereo not shown) [5-(2-dodecylphenyl)-4-sulfinyl-6-thianonanedioic acid], the Kb in test [1] is 1580 nM.
Regarding `CCCCCCCCCCCCc1ccsc1C(SCCC(=O)O)SCCC(=O)O` [Formula (V) 2 2 C12 H25 H, 4,6-dithia-5-(3-dodecyl-2-thienyl)nonanedioic acid], the Kb in test [1] was 1260 nM.
With `CCCCCCCCCCCCc1csc(C(SCCC(=O)O)SCCC(=O)O)c1` [Formula (V) 2 2 H C12 H25, 4,6-Dithia-5-(4-dodecyl-2-thienyl)nonanedioic acid], the Kb in test [1] is 3160 nM.
